{"source": "patent US11572344B2", "about": "“Cyanoaryl-aniline compounds for treatment of dermal disorders” (NFlection Therapeutics, Inc., priority 2018, dated 2023)", "system": "pERK in human cutaneous neurofibroma explants", "experiment": "Human cutaneous neurofibroma explant pERK suppression (Western blot)", "format": "cell-based", "experimental": "Explant Protocol: Human cutaneous neurofibroma explant samples were collected in DMEM/F-12 (Thermo Fisher, Cat #11320033) supplemented with 1×B27 supplement (Thermo Fisher, Cat #17504044), 2.5 μg/ml of Amphotericin B (Thermo Fisher, Cat #15290018), and 50 units/ml of Penicillin-50 μg/ml of Streptomycin (Thermo Fisher, Cat #15070063) and incubated in the same medium for subsequent treatment. The specimen was cut into small cubes containing both the epidermis and dermis. The tissues were partially submerged in the medium in 384-well plate with the epidermis exposed to the air.\nThe tissues were fully submerged in the medium in 48-well plate and 5 μl of compounds dissolved in DMSO were added to 200 μl of the medium in each well. After 4 h incubation at 37° C. and 5% CO2, the tissues were harvested and half of the specimen was flash frozen in liquid nitrogen for Western Blot analysis. The other half of the specimen was fixed for 24 hours in 10% formalin and then transferred to 70% ethanol for […].\nSkin samples were thawed on ice and weighed. 10 volume (10 μl for each mg of tissue) of lysis buffer (RIPA buffer+0.5 mM EDTA+1×Halt protease and phosphatase inhibitor cocktail) was then added to each sample. […]\nWestern Blot analysis: The lysate was thawed on ice and protein concentration was determined by the BCA protein assay kit using bovine serum albumin (BSA) as standards. […]", "data": [{"smiles": "N#Cc1ccc(C(=O)NOCCO)c(Nc2ccc(I)cc2F)c1F", "note": "[Compound 1.030, 4-cyano-3-fluoro-2-((2-fluoro-4-iodophenyl)amino)-N-(2-hydroxyethoxy) benzamide]", "values": [{"measurement": "suppression of pERK in human cutaneous neurofibroma (cNF) explants", "setting": "concentration of 500 nM (FIG. 5)", "value": "suppression of pERK"}, {"measurement": "suppression of pERK in human cutaneous neurofibroma (cNF) explants", "setting": "treatment for 4 hours at 5 nM, 50 nM, and 500 nM (FIG. 4)", "value": "suppression of pERK"}]}]}
